# Results published in patent US9757372B2, “Toll-like receptor 4 antagonists and use in autoimmune liver diseases” (TAIWANJ PHARMACEUTICALS CO., LTD., priority 2015, dated 2017).
# Key:
# [1] = test system: liver NK cells, NKT cells and mononuclear cells; assay: Murine model of primary biliary cirrhosis (2-OA-BSA and α-GalCer immunized C57BL/6 mice); assay type: in vivo, mouse; details: 50 mg/kg bid oral; for effect on elevated liver NK cells: week 4 through week 10 (FIG. 3); for effect on elevated liver NKT cells: week 4 through week 10 (FIG. 4); for effect on elevated liver mononuclear cells: week 4 through week 10 (not shown)
# Excerpt: C57BL/6 mice of 8-10 weeks old were immunized with 2-OA-BSA and α-GalCer at week 0, followed by booster injections at 2, 4, and 8. […] Each value represents individual animals. Some animals were lost due to lunging.
# Con A-induced hepatitis = assay: Concanavalin A hepatitis in mouse (murine model of AIH); assay type: in vivo
# TLR4 [2] = biological target: T1, TLR4 (Homo sapiens, UniProt O00206+Q9Y6Y9); details: Hutchinson et al., Eur J Neurosci. 28:20-29, 2008; cited from earlier work
# Target sequence in this assay (O00206 24-839, species assumed): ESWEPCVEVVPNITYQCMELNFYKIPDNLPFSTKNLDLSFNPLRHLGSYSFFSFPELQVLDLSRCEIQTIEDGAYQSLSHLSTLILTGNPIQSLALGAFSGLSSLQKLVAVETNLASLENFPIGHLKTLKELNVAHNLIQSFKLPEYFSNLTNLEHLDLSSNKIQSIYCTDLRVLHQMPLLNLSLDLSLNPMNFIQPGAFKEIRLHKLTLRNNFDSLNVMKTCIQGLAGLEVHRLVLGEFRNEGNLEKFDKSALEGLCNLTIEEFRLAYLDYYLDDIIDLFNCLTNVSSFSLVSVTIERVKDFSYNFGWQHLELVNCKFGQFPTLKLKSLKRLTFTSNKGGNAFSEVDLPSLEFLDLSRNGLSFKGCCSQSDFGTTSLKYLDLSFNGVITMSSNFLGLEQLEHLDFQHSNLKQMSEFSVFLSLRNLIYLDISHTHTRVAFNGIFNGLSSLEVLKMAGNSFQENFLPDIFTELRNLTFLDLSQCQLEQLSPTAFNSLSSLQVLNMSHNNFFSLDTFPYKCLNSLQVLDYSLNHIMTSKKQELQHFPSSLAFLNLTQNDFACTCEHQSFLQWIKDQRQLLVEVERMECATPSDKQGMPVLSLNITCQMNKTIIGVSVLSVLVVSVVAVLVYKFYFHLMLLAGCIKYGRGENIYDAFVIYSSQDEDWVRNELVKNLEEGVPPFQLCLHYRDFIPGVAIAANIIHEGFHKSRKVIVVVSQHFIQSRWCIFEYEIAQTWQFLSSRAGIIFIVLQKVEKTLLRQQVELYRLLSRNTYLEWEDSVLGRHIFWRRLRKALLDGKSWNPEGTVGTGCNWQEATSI
# Target sequence in this assay (Q9Y6Y9 17-160 limits assumed, species assumed): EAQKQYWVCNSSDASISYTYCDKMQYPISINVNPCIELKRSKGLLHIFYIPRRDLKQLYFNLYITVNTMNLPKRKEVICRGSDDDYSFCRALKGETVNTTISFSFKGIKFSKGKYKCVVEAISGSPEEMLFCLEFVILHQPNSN
# TLR4 [3] = biological target: T1, TLR4; assay: Inhibition of TLR4 activation: NF-κB-inducible SEAP reporter, antagonist assay with LPS; assay type: cell-based; design: expressed in transfected cells; host or cells: HEK293
# Method: The secreted alkaline phosphatase reporter is under the control of a promoter inducible by the transcription factor NF-κB. TLR stimulation in the screening is tested by assessing NF-κB activation in the HEK293 cells expressing a given TLR. This reporter gene allows the monitoring of signaling through the TLR, based on the activation of NF-κB. In a 96-well plate (200μL total volume) containing the appropriate cells (25,000-50,000 cells/well), we add 20μL of your sample or the positive control ligands to the wells. For the antagonist assay, the samples are incubated with the cells for 30 minutes prior to adding the appropriate stimulating ligand. The media we add to the wells is designed for the detection of NF-κB induced SEAP expression. After a 16-20 hr incubation we read the OD at 650 nm on a Beckman Coulter AD 340C Absorbance Detector.
# Target sequence in this assay (O00206 24-839): as the sequence (O00206 24-839, species assumed) above
# Target sequence in this assay (Q9Y6Y9 17-160 limits assumed): as the sequence (Q9Y6Y9 17-160 limits assumed, species assumed) above
# [4] = 20 mg/kg, 9 hours post Con A challenge, P<0.05 vs vehicle
# [5] = 50 mg/kg PO, result in words (FIG. 2)
Structure (SMILES),effect on elevated liver NK cells [1],effect on elevated liver NKT cells [1],effect on elevated liver mononuclear cells [1],reduction of IL-5 in the liver (Con A-induced hepatitis; [4]),reduction of IL-6 in the liver (Con A-induced hepatitis; [4]),reported TLR4 antagonist (TLR4 [2]),inhibition of Con A-induced elevation of ALT (Con A-induced hepatitis; [5]),inhibition of Con A-induced elevation of AST (Con A-induced hepatitis; [5]),"reduction of IL-5 in the serum (Con A-induced hepatitis; 50 mg/kg, 6 hours post Con A challenge)","reduction of IL-5 in the liver (Con A-induced hepatitis; 50 mg/kg, 24 hours post Con A challenge)","% of Inhibition of NF-κB (TLR4 [3]; HEK293 cells expressing TLR4, LPS 50 pg/mL, compound 10 μM)",inhibition of LPS-induced TLR4 activation (TLR4 [3]; at various concentrations)
"O=C1CC[C@@]2(O)[C@H]3Cc4ccc(O)c5c4[C@@]2(CCN3CC2CC2)[C@H]1O5 [Compound A, naltrexone]",suppressed,suppressed,suppressed,21%,32%,TLR4 antagonist,–,–,–,–,–,–
"C=C1CC[C@@]2(O)[C@H]3Cc4ccc(O)c5c4[C@@]2(CCN3CC2CC2)[C@H]1O5 [Compound B, nalmefene]",suppressed,suppressed,suppressed,–,–,–,significant (P<0.05) inhibition,significant (P<0.05) inhibition,64%,16%,21%,weak inhibition
"COc1ccc2c(c1)[C@@]13CCCC[C@H]1[C@@H](C2)NCC3 [Compound C, 3-methoxymorphinan]",suppressed,suppressed,suppressed,–,–,–,–,–,–,–,–,–
"Oc1ccc2c(c1)[C@@]13CCCC[C@H]1[C@@H](C2)NCC3 [Compound D, 3-hydroxymorphinan]",suppressed,suppressed,suppressed,–,–,–,–,–,–,–,–,–
